Experimental data published in publication PMC6318021 (Structure (London, England : 1993), 2018).

Target: Nurr1 (nuclear receptor related 1 protein) (Homo sapiens, UniProt P43354)
Assay: tryptophan fluorescence quenching
Type: binding

Chain of Nurr1 (nuclear receptor related 1 protein) (P43354 352-598): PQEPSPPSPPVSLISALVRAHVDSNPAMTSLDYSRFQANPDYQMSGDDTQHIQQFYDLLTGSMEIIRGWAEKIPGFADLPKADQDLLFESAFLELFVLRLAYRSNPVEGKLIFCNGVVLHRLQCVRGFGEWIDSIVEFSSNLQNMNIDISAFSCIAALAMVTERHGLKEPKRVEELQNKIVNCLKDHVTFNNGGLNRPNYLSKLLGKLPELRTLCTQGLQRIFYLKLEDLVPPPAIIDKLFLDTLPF

| Compound | Kd |
| --- | --- |
| CCCCC/C=C\C/C=C\CCCCCCCC(=O)O [LA, linoleic acid] | 101 ± 13 µM |
| CCCCCCCC/C=C\CCCCCCCC(=O)O [OA, oleic acid] | 59 ± 15 µM |
